Columns and labels:
Type in all cases: in vivo
[1] = tested on: Abutilon theophrasti; experiment: Weeding effect in post-emergence stage; settings: for Weeding effect in post-emergence stage, Abutilon theophrasti: level of fresh weight growth control rate; for Weeding effect in post-emergence stage, Abutilon theophrasti (level): fresh weight control rate level
In short: (§1)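 Read-out is growth control rate, counted 3 weeks post-spray and averaged over three repeats. Greenhouse plants at the 2-3 leaf stage received spray-tower application at 500, 250, 125, 60, 30, 15 or 7.5 g/ha, with methyl oleate EC (1.5 liter/ha) and Tween 80 added.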

[2] = tested on: Alopecurus japonicus; experiment: Weeding effect in post-emergence stage; settings: for Weeding effect in post-emergence stage, Alopecurus japonicus: level of fresh weight growth control rate; for Weeding effect in post-emergence stage, Alopecurus japonicus (level): fresh weight control rate level
In short: as §1

[3] = tested on: Digitaria sanguinalis; experiment: Weeding effect in post-emergence stage; settings: for Weeding effect in post-emergence stage, Digitaria sanguinalis: level of fresh weight growth control rate; for Weeding effect in post-emergence stage, Digitaria sanguinalis (level): fresh weight control rate level
In short: as §1

[4] = tested on: Eleusine indica; experiment: Weeding effect in post-emergence stage; settings: for Weeding effect in post-emergence stage, Eleusine indica: level of fresh weight growth control rate; for Weeding effect in post-emergence stage, Eleusine indica (level): fresh weight control rate level
In short: as §1

[5] = tested on: Setaria viridis; experiment: Weeding effect in post-emergence stage; settings: for Weeding effect in post-emergence stage, Setaria viridis: level of fresh weight growth control rate; for Weeding effect in post-emergence stage, Setaria viridis (level): fresh weight control rate level
In short: as §1

[6] = tested on: Echinochloa crusgalli; experiment: Weeding effect in post-emergence stage; settings: for Weeding effect in post-emergence stage, Echinochloa crusgalli: level of fresh weight growth control rate; for Weeding effect in post-emergence stage, Echinochloa crusgalli (level): fresh weight control rate level
In short: as §1

[7] = tested on: Abutilon theophrasti; experiment: Weeding effect in pre-emergence stage; settings: 30 g/ha, 4 weeks
In short: (§2)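 Pots were kept in the greenhouse for 4 weeks and then rated for growth control on activity-level criteria. Spraying took place immediately after sowing at application rates of 500 to 7.5 g/ha, using an acetone/tween 80 formulation diluted with water, on seeds under 0.5-2 cm of soil.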

[8] = tested on: Amaranthus retroflexus; experiment: Weeding effect in pre-emergence stage; settings: 30 g/ha, 4 weeks
In short: as §2

[9] = tested on: Capsella bursa-pastoris; experiment: Weeding effect in pre-emergence stage; settings: 30 g/ha, 4 weeks
In short: as §2

[10] = tested on: Descurainia sophia; experiment: Weeding effect in pre-emergence stage; settings: 30 g/ha, 4 weeks
In short: as §2

[11] = tested on: Setaria viridis; experiment: Weeding effect in pre-emergence stage; settings: 30 g/ha, 4 weeks
In short: as §2

[12] = tested on: Veronica didyma Tenore; experiment: Weeding effect in pre-emergence stage; settings: 30 g/ha, 4 weeks
In short: as §2

[13] = tested on: Peanut; experiment: Pre-emergence stage, crop selectivity; settings: 30 g/ha, 4 weeks
In short: as §2

[14] = tested on: Soybeans; experiment: Pre-emergence stage, crop selectivity; settings: 30 g/ha, 4 weeks
In short: as §2

[15] = tested on: corn; experiment: Pre-emergence stage, crop selectivity; settings: 30 g/ha, 4 weeks
In short: as §2

[16] = tested on: cotton; experiment: Pre-emergence stage, crop selectivity; settings: 30 g/ha, 4 weeks
In short: as §2

[17] = tested on: Leptochloa chinensis; experiment: Weed control effect evaluation in rice field; settings: rice field pot, 30 g/ha, 14 days after treatment
Excerpt: (§3) The activity level criteria for plant damage (i.e., growth control rate) are as follows:
(§4) Rice field soil was loaded into a 1/1,000,000 ha pot. The seeds of Echinochloa crusgalli. Scirpus juncoides. Bidens tripartita L., Monochoria vaginalis, and Leptochloa chinensis were sowed and gently covered with soil, then left to stand still in greenhouse in the state of 0.5-1 cm of water storage. The tuber of Sagittaria trifolia was planted in the next day or 2 days later. It was kept at 3-4 cm of water storage thereafter. The weeds were treated by dripping the WP or SC water diluents prepared according to the common preparation method of the compounds of the present invention with pipette homogeneously to achieve specified effective amount when Echinochloa crusgalli. Scirpus juncoides, Bidens tripartita L., Monochoria vaginalis, and Leptochloa chinensis reached 0.5 leaf stage and Sagittaria trifolia reached the time point of primary leaf stage.
(§5) The fertility condition of Echinochloa crusgalli. Scirpus juncoides. Bidens tripartita L., Monochoria vaginalis, Leptochloa chinensis and Sagittaria trifolia 14 days after the treatment of the compound of the invention and the fertility condition of rice 21 days after the treatment of the compound of the invention respectively with the naked eye. Evaluate the weed control effect with the above activity standard level. Many compounds show excellent activity and selectivity.

[18] = tested on: Monochoria vaginalis; experiment: Weed control effect evaluation in rice field; settings: rice field pot, 30 g/ha, 14 days after treatment
Excerpt: as §3, §4, §5

[19] = tested on: Scirpus juncoides; experiment: Weed control effect evaluation in rice field; settings: rice field pot, 30 g/ha, 14 days after treatment
Excerpt: as §3, §4, §5

[20] = tested on: Rice; experiment: Transplanted rice safety evaluation; settings: transplanted japonica rice, 30 g/ha, 21 days after treatment
Experimental: as §3
In addition, the rice field soil that loaded into the 1/1,000,000 ha pot was leveled to keep water storage at 3-4 cm depth. The 5 leaf stage rice (japonica rice) was transplanted at 3 cm of transplanting depth the next day. The compound of the present invention was treated by the same way after 5 days of transplantation.
as §5

Compound	Weeding effect in post-emergence stage, Abutilon theophrasti ([1]; Dose 15 g/ha)	Weeding effect in post-emergence stage, Alopecurus japonicus ([2]; Dose 15 g/ha)	Weeding effect in post-emergence stage, Digitaria sanguinalis ([3]; Dose 15 g/ha)	Weeding effect in post-emergence stage, Eleusine indica ([4]; Dose 15 g/ha)	Weeding effect in post-emergence stage, Setaria viridis ([5]; Dose 15 g/ha)	Weeding effect in post-emergence stage, Echinochloa crusgalli ([6]; Dose 15 g/ha)	activity level (growth control rate) Abutilon theophrasti [7]	activity level (growth control rate) Amaranthus retroflexus [8]	activity level (growth control rate) Capsella bursa-pastoris [9]	activity level (growth control rate) Descurainia sophia [10]	activity level (growth control rate) Setaria viridis [11]	activity level (growth control rate) Veronica didyma Tenore [12]	plant damage level Peanut [13]	plant damage level Soybeans [14]	plant damage level Corn [15]	plant damage level Cotton [16]	activity level (weed control effect) Leptochloa chinensis [17]	activity level (weed control effect) Monochoria vaginalis [18]	activity level (weed control effect) Scirpus juncoides [19]	plant damage level Rice [20]	further results
C#CCOC(=O)[C@@H](C)O/N=C/c1cc(-n2c(=O)cc(C(F)(F)F)n(C)c2=O)c(F)cc1Cl [212(R)]	5 (Level 5: growth control rate is above 85%)	5 (Level 5: growth control rate is above 85%)	5 (Level 5: growth control rate is above 85%)	5 (Level 5: growth control rate is above 85%)	5 (Level 5: growth control rate is above 85%)	5 (Level 5: growth control rate is above 85%)	5 (Level 5: growth control rate is above 85%)	5 (Level 5: growth control rate is above 85%)	5 (Level 5: growth control rate is above 85%)	5 (Level 5: growth control rate is above 85%)	5 (Level 5: growth control rate is above 85%)	5 (Level 5: growth control rate is above 85%)	0 (Level 0: growth control rate is less than 5%)	0 (Level 0: growth control rate is less than 5%)	0 (Level 0: growth control rate is less than 5%)	0 (Level 0: growth control rate is less than 5%)	5 (Level 5: growth control rate is above 85%)	5 (Level 5: growth control rate is above 85%)	5 (Level 5: growth control rate is above 85%)	0 (Level 0: growth control rate is less than 5%)	
C[C@@H](O/N=C/c1cc(-n2c(=O)cc(C(F)(F)F)n(C)c2=O)c(F)cc1Cl)C(=O)OCC(F)(F)F [218(R)]	5 (Level 5: growth control rate is above 85%)	5 (Level 5: growth control rate is above 85%)	5 (Level 5: growth control rate is above 85%)	5 (Level 5: growth control rate is above 85%)	5 (Level 5: growth control rate is above 85%)	5 (Level 5: growth control rate is above 85%)	5 (Level 5: growth control rate is above 85%)	5 (Level 5: growth control rate is above 85%)	5 (Level 5: growth control rate is above 85%)	5 (Level 5: growth control rate is above 85%)	5 (Level 5: growth control rate is above 85%)	5 (Level 5: growth control rate is above 85%)	0 (Level 0: growth control rate is less than 5%)	0 (Level 0: growth control rate is less than 5%)	0 (Level 0: growth control rate is less than 5%)	0 (Level 0: growth control rate is less than 5%)	5 (Level 5: growth control rate is above 85%)	5 (Level 5: growth control rate is above 85%)	5 (Level 5: growth control rate is above 85%)	0 (Level 0: growth control rate is less than 5%)	
CC(C)N(C)S(=O)(=O)NC(=O)[C@@H](C)O/N=C/c1cc(-n2c(=O)cc(C(F)(F)F)n(C)c2=O)c(F)cc1Cl [421(R)]							5 (Level 5: growth control rate is above 85%)	5 (Level 5: growth control rate is above 85%)	5 (Level 5: growth control rate is above 85%)	5 (Level 5: growth control rate is above 85%)	5 (Level 5: growth control rate is above 85%)	5 (Level 5: growth control rate is above 85%)	0 (Level 0: growth control rate is less than 5%)	0 (Level 0: growth control rate is less than 5%)	0 (Level 0: growth control rate is less than 5%)	0 (Level 0: growth control rate is less than 5%)	5 (Level 5: growth control rate is above 85%)	5 (Level 5: growth control rate is above 85%)	5 (Level 5: growth control rate is above 85%)	0 (Level 0: growth control rate is less than 5%)	Weeding effect in post-emergence stage, Abutilon theophrasti (level) ([1]; Dose 15 g/ha): 5 (Level 5: growth control rate is above 85%); Weeding effect in post-emergence stage, Alopecurus japonicus (level) ([2]; Dose 15 g/ha): 5 (Level 5: growth control rate is above 85%); Weeding effect in post-emergence stage, Digitaria sanguinalis (level) ([3]; Dose 15 g/ha): 5 (Level 5: growth control rate is above 85%); Weeding effect in post-emergence stage, Eleusine indica (level) ([4]; Dose 15 g/ha): 5 (Level 5: growth control rate is above 85%); Weeding effect in post-emergence stage, Setaria viridis (level) ([5]; Dose 15 g/ha): 5 (Level 5: growth control rate is above 85%); Weeding effect in post-emergence stage, Echinochloa crusgalli (level) ([6]; Dose 15 g/ha): 5 (Level 5: growth control rate is above 85%)
C=CCOC(=O)C(C)(C)O/N=C/c1cc(-n2c(=O)cc(C(F)(F)F)n(C)c2=O)c(F)cc1Cl [Compound 434]							5 (Level 5: growth control rate is above 85%)	5 (Level 5: growth control rate is above 85%)	5 (Level 5: growth control rate is above 85%)	5 (Level 5: growth control rate is above 85%)	5 (Level 5: growth control rate is above 85%)	5 (Level 5: growth control rate is above 85%)	0 (Level 0: growth control rate is less than 5%)	0 (Level 0: growth control rate is less than 5%)	0 (Level 0: growth control rate is less than 5%)	0 (Level 0: growth control rate is less than 5%)	5 (Level 5: growth control rate is above 85%)	5 (Level 5: growth control rate is above 85%)	5 (Level 5: growth control rate is above 85%)	0 (Level 0: growth control rate is less than 5%)	Weeding effect in post-emergence stage, Abutilon theophrasti (level) ([1]; Dose 30 g/ha): 5 (Level 5: growth control rate is above 85%); Weeding effect in post-emergence stage, Alopecurus japonicus (level) ([2]; Dose 30 g/ha): 5 (Level 5: growth control rate is above 85%); Weeding effect in post-emergence stage, Digitaria sanguinalis (level) ([3]; Dose 30 g/ha): 5 (Level 5: growth control rate is above 85%); Weeding effect in post-emergence stage, Eleusine indica (level) ([4]; Dose 30 g/ha): 5 (Level 5: growth control rate is above 85%); Weeding effect in post-emergence stage, Setaria viridis (level) ([5]; Dose 30 g/ha): 5 (Level 5: growth control rate is above 85%); Weeding effect in post-emergence stage, Echinochloa crusgalli (level) ([6]; Dose 30 g/ha): 5 (Level 5: growth control rate is above 85%)

— patent US20230111310A1, “CARBOXYLIC ACID DERIVATIVE-SUBSTITUTED IMINO ARYL COMPOUND, PREPARATION METHOD THEREFOR, HERBICIDAL COMPOSITION AND USE THEREOF” (Qingdao Kingagroot Chemical Compound Co., Ltd., priority 2020, published 2023)
